This passage reports IC50 and POC results from patent US10125134B2 (Mirati Therapeutics, Inc., priority 2016, dated 2018).

Experiment [1] concerns NCI-H358 cells (express KRas G12C), Phospho-ERK. As to the kind of experiment: Cellular inhibition of KRas G12C: Phospho-ERK in NCI-H358 cells. As to conditions: pERK(Thr202/Tyr204) normalized with GAPDH, NCI-H358 cells, 3 hours, read-out: IC50. It is filed as cell-based. A digest of the protocol: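 IC50 derived by 4-parameter fit of GAPDH-normalized pERK(Thr202/Tyr204) signal, as percent of DMSO control. Signal came from in-cell immunodetection with infrared secondaries after 3 h compound exposure of KRas G12C NCI-H358 cells at 0.5% DMSO.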

The target of experiment [2] is KRas G12C (Homo sapiens, UniProt P01116, C118S/C51S/C80L/G12C). Nature of the experiment: KRas G12C Modification Assay (LCMS detection of covalent adduct). Conditions: normalized percent of control; tested at 5 μM concentration for 3 hours. It is filed as binding. The method in brief:
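Covalent modification was read by reverse-phase LC/MS of intact protein after compound exposure, each reaction stopped at its time point with 25 mM acetic acid. Unmodified-protein signal, taken as percent of total, was normalised to untreated protein and reported as POC.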

Like-named read-outs stand apart in the source and are kept apart here.

A word on the IC50: it is the concentration at which inhibition is half-maximal.

As for `C=CC(=O)N1CCN(c2nc(NC[C@@H]3CCCN3C)nc3c2CCN(c2cccc4ccccc24)C3)C[C@@H]1CC#N` [Example 407, 2-((S)-1-acryloyl-4-(2-((((S)-1-methylpyrrolidin-2-yl)methyl)amino)-7-(naphthalen-1-yl)-5,6,7,8-tetrahydropyrido[3,4-d]pyrimidin-4-yl)piperazin-2-yl)acetonitrile], the IC50 in experiment [1] (Homo sapiens, NCI-H358, 3 h) was more than 1 µM. The POC result in experiment [2] was “C (“C”>50% POC)”.
Turning to `C=CC(=O)N1CCN(c2nc(OCCN3CCCCC3)nc3c2CCN(c2cccc4ccccc24)C3)C[C@@H]1CC#N` [Example 408, (S)-2-(1-acryloyl-4-(7-(naphthalen-1-yl)-2-(2-(piperidin-1-yl)ethoxy)-5,6,7,8-tetrahydropyrido[3,4-d]pyrimidin-4-yl)piperazin-2-yl)acetonitrile], the half-maximal inhibitory concentration (IC50) in experiment [1] (Homo sapiens, NCI-H358, 3 h) was in the range of 0.0001 to 1 µM. Also, the POC entry in experiment [2] is reported as “C (“C”>50% POC)”.
Regarding `C=CC(=O)N1CCN(c2nc(OC[C@@H]3CCN(C)C3)nc3c2CCN(c2cccc4ccccc24)C3)C[C@@H]1CC#N` [Example 409, 2-((S)-1-acryloyl-4-(2-(((R)-1-methylpyrrolidin-3-yl)methoxy)-7-(naphthalen-1-yl)-5,6,7,8-tetrahydropyrido[3,4-d]pyrimidin-4-yl)piperazin-2-yl)acetonitrile], in experiment [1] (Homo sapiens, NCI-H358, 3 h), the IC50 lay within 0.0001 to 1 µM. Also, the POC result in experiment [2] is “C (“C”>50% POC)”.
With `C=CC(=O)N1CCN(c2nc(OC[C@@H]3CCCN3C)nc3c2CCN(c2cccc(F)c2C)C3)CC1CC#N` (stereo partly drawn) [Example 410, 2-(1-acryloyl-4-(7-(3-fluoro-2-methylphenyl)-2-(((S)-1-methylpyrrolidin-2-yl)methoxy)-5,6,7,8-tetrahydropyrido[3,4-d]pyrimidin-4-yl)piperazin-2-yl)acetonitrile], the IC50 in experiment [1] (Homo sapiens, NCI-H358, 3 h) was 0.0001 to 1 µM. For the same compound, the POC result in experiment [2] is “C (“C”>50% POC)”.
For `C=CC(=O)N1CCN(c2nc(OC[C@@H]3CCCN3C)nc3c2CCN(c2c(F)cccc2C(F)(F)F)C3)CC1CC#N` (stereo partly drawn) [Example 411, 2-(1-acryloyl-4-(7-(2-fluoro-6-(trifluoromethyl)phenyl)-2-(((S)-1-methylpyrrolidin-2-yl)methoxy)-5,6,7,8-tetrahydropyrido[3,4-d]pyrimidin-4-yl)piperazin-2-yl)acetonitrile], the IC50 in experiment [1] lay in the range of 0.0001 to 1 µM. For the same compound, the POC result in experiment [2] is recorded as “C (“C”>50% POC)”.
In the case of `C=CC(=O)N1CCN(c2nc(OC[C@@H]3CCCN3C)nc3c2CCN(c2ccc(F)cc2C(F)(F)F)C3)CC1CC#N` (stereo partly drawn) [Example 412, 2-(1-acryloyl-4-(7-(4-fluoro-2-(trifluoromethyl)phenyl)-2-(((S)-1-methylpyrrolidin-2-yl)methoxy)-5,6,7,8-tetrahydropyrido[3,4-d]pyrimidin-4-yl)piperazin-2-yl)acetonitrile], in experiment [1], the IC50 lay within 0.0001 to 1 µM. The POC result in experiment [2] is “C (“C”>50% POC)”.
On to `C=CC(=O)N1CCN(c2nc(OC[C@@H]3CCCN3C)nc3c2CCN(c2cccc(Cl)c2C(F)(F)F)C3)CC1CC#N` (stereo partly drawn) [Example 413, 2-(1-acryloyl-4-(7-(3-chloro-2-(trifluoromethyl)phenyl)-2-(((S)-1-methylpyrrolidin-2-yl)methoxy)-5,6,7,8-tetrahydropyrido[3,4-d]pyrimidin-4-yl)piperazin-2-yl)acetonitrile], for which, in experiment [1], the IC50 fell in the range of 0.0001 to 1 µM. For the same compound, the POC entry in experiment [2] is on record as “C (“C”>50% POC)”.
For `C=CC(=O)N1CCN(c2nc(OC[C@H]3C[C@H](O)CN3C)nc3c2CCN(c2cccc(F)c2C(F)(F)F)C3)CC1CC#N` (stereo partly drawn) [Example 414, 2-(1-acryloyl-4-(7-(3-fluoro-2-(trifluoromethyl)phenyl)-2-(((2R,4S)-4-hydroxy-1-methylpyrrolidin-2-yl)methoxy)-5,6,7,8-tetrahydropyrido[3,4-d]pyrimidin-4-yl)piperazin-2-yl)acetonitrile], the IC50 in experiment [1] (Homo sapiens, NCI-H358, 3 h) lay within 0.0001 to 1 µM. Further, the POC entry in experiment [2] is on record as “C (“C”>50% POC)”.
With `C=CC(=O)N1CCN(c2nc(OC[C@H]3C[C@@H](O)CN3C)nc3c2CCN(c2cccc(F)c2C(F)(F)F)C3)CC1CC#N` (stereo partly drawn) [Example 415, 2-(1-acryloyl-4-(7-(3-fluoro-2-(trifluoromethyl)phenyl)-2-(((2R,4R)-4-hydroxy-1-methylpyrrolidin-2-yl)methoxy)-5,6,7,8-tetrahydropyrido[3,4-d]pyrimidin-4-yl)piperazin-2-yl)acetonitrile], the 50% inhibitory concentration (IC50) in experiment [1] (Homo sapiens, NCI-H358, 3 h) was in the range of 0.0001 to 1 µM. In addition, the POC result in experiment [2] is on record as “C (“C”>50% POC)”.
For `C=CC(=O)N1CCN(c2nc(OC[C@H]3C[C@H](F)CN3C)nc3c2CCN(c2cccc(F)c2C(F)(F)F)C3)CC1CC#N` (stereo partly drawn) [Example 416, 2-(1-acryloyl-4-(2-(((2R,4S)-4-fluoro-1-methylpyrrolidin-2-yl)methoxy)-7-(3-fluoro-2-(trifluoromethyl)phenyl)-5,6,7,8-tetrahydropyrido[3,4-d]pyrimidin-4-yl)piperazin-2-yl)acetonitrile] the same measures were 0.0001 to 1 µM and “C (“C”>50% POC)”.
Consider `C=CC(=O)N1CCN(c2nc(OC[C@@]3(C)CCCN3C)nc3c2CCN(c2cccc(F)c2C(F)(F)F)C3)CC1CC#N` (stereo partly drawn) [Example 417, 2-(1-acryloyl-4-(2-(((R)-1,2-dimethylpyrrolidin-2-yl)methoxy)-7-(3-fluoro-2-(trifluoromethyl)phenyl)-5,6,7,8-tetrahydropyrido[3,4-d]pyrimidin-4-yl)piperazin-2-yl)acetonitrile], for which the IC50 in experiment [1] (Homo sapiens) is 0.0001 to 1 µM. In addition, in experiment [2], the POC result is on record as “C (“C”>50% POC)”.
Take `C=CC(=O)N1CCN(c2nc(OC[C@@H]3C[C@H](O)CN3C)nc3c2CCN(c2cccc4ccccc24)C3)CC1CC#N` (stereo partly drawn) [Example 418, 2-(1-acryloyl-4-(2-(((2S,4S)-4-hydroxy-1-methylpyrrolidin-2-yl)methoxy)-7-(naphthalen-1-yl)-5,6,7,8-tetrahydropyrido[3,4-d]pyrimidin-4-yl)piperazin-2-yl)acetonitrile]: in experiment [1] (Homo sapiens, NCI-H358, 3 h), the half-inhibitory concentration (IC50) lay within 0.0001 to 1 µM. Also, in experiment [2], the POC entry is “C (“C”>50% POC)”.
Consider `C=CC(=O)N1CCN(c2nc(OC[C@@H]3CCCN3C)nc3c2CCN(c2cccc(Cl)c2C)C3)C[C@@H]1CC#N` [Example 419, 2-((S)-1-acryloyl-4-(7-(3-chloro-2-methylphenyl)-2-(((S)-1-methylpyrrolidin-2-yl)methoxy)-5,6,7,8-tetrahydropyrido[3,4-d]pyrimidin-4-yl)piperazin-2-yl)acetonitrile], for which the IC50 in experiment [1] (Homo sapiens, NCI-H358, 3 h) was in the range of 0.0001 to 1 µM. Also, the POC entry in experiment [2] is “C (“C”>50% POC)”.
The like results for `C=CC(=O)N1CCN(c2nc(OC[C@@H]3CCCN3C)nc3c2CCN(c2cccc(Cl)c2Cl)C3)C[C@@H]1CC#N` [Example 420, 2-((S)-1-acryloyl-4-(7-(2,3-dichlorophenyl)-2-(((S)-1-methylpyrrolidin-2-yl)methoxy)-5,6,7,8-tetrahydropyrido[3,4-d]pyrimidin-4-yl)piperazin-2-yl)acetonitrile] were, in that order, 0.0001 to 1 µM and “C (“C”>50% POC)”.
In the case of `C=CC(=O)N1CCN(c2nc(OC[C@@H]3CCCN3C)nc3c2CCN(c2cccc(Cl)c2OC)C3)C[C@@H]1CC#N` [Example 421, 2-((S)-1-acryloyl-4-(7-(3-chloro-2-methoxyphenyl)-2-(((S)-1-methylpyrrolidin-2-yl)methoxy)-5,6,7,8-tetrahydropyrido[3,4-d]pyrimidin-4-yl)piperazin-2-yl)acetonitrile], in experiment [1] (Homo sapiens, NCI-H358, 3 h), the IC50 was 0.0001 to 1 µM. Further, in experiment [2], the POC result was “C (“C”>50% POC)”.
Turning to `CN(C)C/C=C/C(=O)N1CCN(c2nc(OC[C@H]3CCCN3C)nc3c2CCN(c2cccc(Cl)c2C(F)(F)F)C3)C[C@@H]1CC#N` [Example 422, 2-((S)-4-(7-(3-chloro-2-(trifluoromethyl)phenyl)-2-(((R)-1-methylpyrrolidin-2-yl)methoxy)-5,6,7,8-tetrahydropyrido[3,4-d]pyrimidin-4-yl)-1-((E)-4-(dimethylamino)but-2-enoyl)piperazin-2-yl)acetonitrile], the IC50 in experiment [1] (Homo sapiens, NCI-H358, 3 h) fell in the range of 0.0001 to 1 µM. In addition, in experiment [2], the POC result was “C (“C”>50% POC)”.
The like results for `C=CC(=O)N1CCN(c2nc(OC[C@@H]3CCCN3C)nc3c2CCN(c2ccc(F)c(C)c2C)C3)C[C@@H]1CC#N` [Example 423, 2-((S)-1-acryloyl-4-(7-(4-fluoro-2,3-dimethylphenyl)-2-(((S)-1-methylpyrrolidin-2-yl)methoxy)-5,6,7,8-tetrahydropyrido[3,4-d]pyrimidin-4-yl)piperazin-2-yl)acetonitrile] were, in that order, 0.0001 to 1 µM and “C (“C”>50% POC)”.
With `C=CC(=O)N1CCN(c2nc(OC[C@@H]3CCCN3C)nc3c2CCN(c2cccc(C)c2Cl)C3)C[C@@H]1CC#N` [Example 424, 2-((S)-1-acryloyl-4-(7-(2-chloro-3-methylphenyl)-2-(((S)-1-methylpyrrolidin-2-yl)methoxy)-5,6,7,8-tetrahydropyrido[3,4-d]pyrimidin-4-yl)piperazin-2-yl)acetonitrile], the IC50 in experiment [1] (Homo sapiens, NCI-H358, 3 h) lay in the range of 0.0001 to 1 µM. Further, the POC result in experiment [2] was “C (“C”>50% POC)”.
For `C=CC(=O)N1CCN(c2nc(OC[C@@H]3C[C@@H](O)CN3C)nc3c2CCN(c2cccc(Cl)c2C(F)(F)F)C3)C[C@@H]1CC#N` [Example 425, 2-((S)-1-acryloyl-4-(7-(3-chloro-2-(trifluoromethyl)phenyl)-2-(((2S,4R)-4-hydroxy-1-methylpyrrolidin-2-yl)methoxy)-5,6,7,8-tetrahydropyrido[3,4-d]pyrimidin-4-yl)piperazin-2-yl)acetonitrile], the IC50 in experiment [1] (Homo sapiens, NCI-H358, 3 h) was 0.0001 to 1 µM. Further, the POC entry in experiment [2] is recorded as “C (“C”>50% POC)”.
